Test results from patent US20260191849A1, “PHARMACEUTICAL COMPOSITION FOR TREATMENT OF CANCER” (WIGEN BIOMEDICINE TECHNOLOGY (SHANGHAI) CO., LTD., priority 2022, published 2026).
Like-named read-outs stand apart in the source and are kept apart here.

Columns and labels:
[1] = tested on: HT29 cells; test: Combined use of compound 257, AMG650 or Compound A with PLK1 inhibitor on HT29 cell viability, 168 h (Biological Example 19); type: cell-based; details: for IC50: HT29 cells
Method: HT29 cells were seeded on a 384-well plate at 3000 cells/well.

[2] = tested on: HT29 subcutaneous xenograft tumors; test: In vivo pharmacodynamic study, HT29 subcutaneous xenograft tumor model of mice (Biological Example 3); parameters: species or system BALB/c nude mice; details: 80 mg/kg intragastric once daily, day 28
Method: BALB/c nude mice were each inoculated subcutaneously with 5×10^6 HT29 cells on the left dorsal side. After the tumors grew to 100-150 mm^3, the mice were randomly divided into the following groups for intragastric administration once daily: group 1: vehicle control group; group 2: compound 661 (80 mg/kg); group 3: compound 669 (80 mg/kg); group 4: compound 677 (80 mg/kg); group 5: compound 714 (80 mg/kg); group 6: compound 727 (80 mg/kg); group 7: compound 740 (80 mg/kg); and group 8: AMG65 (80 mg/kg). The tumor volume was measured twice weekly and at the end of administration. […].

[3] = tested on: HCT116 cells; test: Combined use of compound 257, AMG650 or Compound A with PLK1 inhibitor on HCT116 cell viability, 168 h (Biological Example 20); type: cell-based
Method: HCT116 cells were seeded on a 384-well plate at 3000 cells/well. After overnight adherence culture, DMSO or compound 257, AMG650, or Compound A serially diluted in a 1:5 ratio from 400 nM and a PLK1 inhibitor with a specified concentration were added. The cell viability was assessed 168 h after dosing by measuring the intracellular ATP content. The inhibition percentages of viable cells by the compounds were calculated by comparing with the DMSO group, and the IC50 values were also calculated.

[4] = tested on: HT29 subcutaneous xenograft tumors; test: In vivo pharmacodynamic study of combination therapy, HT29 subcutaneous xenograft tumor model of mice (Biological Example 14); parameters: species or system BALB/c nude mice
Source text: BALB/c nude mice were each inoculated subcutaneously with 5×10^6 HT29 cells on the left dorsal side. After the tumors grew to 100-150 mm^3, the mice were randomly divided into the following groups for intragastric administration once daily for 14 consecutive days: group 1: vehicle control group; group 2: AMG650 (50 mpk, PO, QD); group 3: compound 714 (50 mpk, PO, QD); group 4: AMG650 (50 mpk, PO, QD)+Onvasertib (20 mpk, PO, QD); group 5: compound 714 (50 mpk, PO, QD)+Onvasertib (20 mpk, PO, QD); and group 6: Onvasertib (20 mpk, PO, QD). The administration to all the groups was stopped on day 15, and the tumor growth continued to be observed until day 21. The tumor volume was measured twice weekly and at the end of administration. […]

[5] = tested on: HT29 cells; test: Combined use of compound 257 or AMG650 with PLK1 inhibitor (Volasertib) on HT29 cell viability, 168 h (Biological Example 22); type: cell-based; details: Homo sapiens, HT-29, 168 h, HT29 cells, 168 h, read-out: Volasertib IC50
Method: (§1) HT29 cells were seeded on a 384-well plate at 3000 cells/well. After overnight adherence culture, DMSO or compound 257 or AMG650 serially diluted in a 1:5 ratio from 400 nM and a PLK1 inhibitor with a specified concentration were added. The cell viability was assessed 168 h after dosing by measuring the intracellular ATP content. […] Furthermore, interactions between the drugs were also analyzed using the BLISS independence model, and the results are shown in FIG. 15 and FIG. 16.

[6] = tested on: SK-OV-3 cells; test: Combined use of compound 257 or AMG650 with PLK1 inhibitor on SK-OV-3 cell viability, 168 h (Biological Example 21); type: cell-based; details: Homo sapiens, SK-OV-3, 168 h, SK-OV-3 cells, 168 h, read-out: Volasertib IC50
Method: as §1, with “SK—OV-3” for “HT29”, “11” for “15”, “12.” for “16.”

[7] = PO QD 14 days, AMG650/714 50 mpk, Onvasertib 20 mpk, day 15
[8] = KIF18A inhibitor AMG650 0.0001 nM
[9] = KIF18A inhibitor AMG650 0.64 nM
[10] = KIF18A inhibitor Compound 257 0.0001 nM
[11] = KIF18A inhibitor Compound 257 0.64 nM
[12] = KIF18A inhibitor Compound 257 3.2 nM
[13] = KIF18A inhibitor Compound 257 16 nM
[14] = KIF18A inhibitor Compound 257 80 nM
[15] = KIF18A inhibitor Compound 257 400 nM

COc1cc(C(=O)N[C@H]2CC[C@H](N3CCN(C)CC3)CC2)ccc1Nc1ncc2c(n1)N(C1CCCC1)CC1(CC1)C(=O)N2C [CYC140 (Plogosertib), Plogosertib] was tested, and the IC50 ([1]; KIF18A inhibitor AMG650 0.0001 nM, read-out: PLK1 inhibitor IC50) was 50.1 nM, the IC50 ([1]; KIF18A inhibitor AMG650 0.64 nM, read-out: PLK1 inhibitor IC50) was 48.9 nM and the IC50 ([1]; KIF18A inhibitor AMG650 3.2 nM, read-out: PLK1 inhibitor IC50) was 49.9 nM. For the same compound, the IC50 ([1]; KIF18A inhibitor AMG650 16 nM, read-out: PLK1 inhibitor IC50) was 24.9 nM, the IC50 ([1]; KIF18A inhibitor AMG650 80 nM, read-out: PLK1 inhibitor IC50) was 7.9 nM and the IC50 ([1]; KIF18A inhibitor AMG650 400 nM, read-out: PLK1 inhibitor IC50) was 3.5 nM. For the same compound, the IC50 ([1]; KIF18A inhibitor Compound 257 0.0001 nM, read-out: PLK1 inhibitor IC50) was 52.1 nM, the IC50 ([1]; KIF18A inhibitor Compound 257 0.64 nM, read-out: PLK1 inhibitor IC50) was 37 nM and the IC50 ([1]; KIF18A inhibitor Compound 257 3.2 nM, read-out: PLK1 inhibitor IC50) was 15.5 nM. For the same compound, the IC50 ([1]; KIF18A inhibitor Compound 257 16 nM, read-out: PLK1 inhibitor IC50) was 3.8 nM, the IC50 ([1]; KIF18A inhibitor Compound 257 80 nM, read-out: PLK1 inhibitor IC50) was 1.6 nM and the IC50 ([1]; KIF18A inhibitor Compound 257 400 nM, read-out: PLK1 inhibitor IC50) was 2.2 nM.
For COc1ccc(NC(=O)c2ccc(NS(=O)(=O)CCOC(C)=O)cc2N2CCC3(CC2)CC3)nc1N1CCC(F)(F)CC1 [Compound 661], the TGI [2] was 61%.
COc1ccc(C(=O)Nc2ccc(NS(=O)(=O)CCOC(C)=O)cc2N2CCC3(CC2)CC3)nc1N1CCC(F)(F)CC1 [Compound 669] was tested, and the TGI [2] was 30%.
In the case of COc1ccc(NC(=O)c2ccc(S(=O)(=O)NCCOC(C)=O)cc2N2CCC3(CC2)CC3)nc1N1CCC(F)(F)CC1 [Compound 677], the TGI [2] is reported as 55%.
CCS(=O)(=O)Nc1ccc2c(c1)C1(CCC3(CC3)CC1)CN2C(=O)c1cccc(S(=O)(=O)NC(C)(C)C)c1 [Compound A] was tested, and the “inhibitory effect on HT-29 cells, combined use with the PLK1 inhibitor compared with monotherapy” value ([1]; CYC140 or TAK-960, in words) was “stronger inhibitory effect”, the IC50 ([1]; Homo sapiens, HT-29, 168 h, CYC140 (Plogosertib) 0.0001 nM, read-out: IC50) was 26.1 nM and the IC50 ([1]; Homo sapiens, HT-29, 168 h, CYC140 (Plogosertib) 1.6 nM, read-out: IC50) was 19.6 nM. The IC50 ([1]; Homo sapiens, HT-29, 168 h, CYC140 (Plogosertib) 8 nM, read-out: IC50) was 15.5 nM, the IC50 ([1]; Homo sapiens, HT-29, 168 h, CYC140 (Plogosertib) 40 nM, read-out: IC50) was 2.2 nM and the IC50 ([1]; Homo sapiens, HT-29, 168 h, TAK-960 0.0001 nM, read-out: IC50) was 23.8 nM. It also gave an IC50 ([1]; Homo sapiens, HT-29, 168 h, TAK-960 1.6 nM, read-out: IC50) of 17.3 nM, an IC50 ([1]; Homo sapiens, HT-29, 168 h, TAK-960 8 nM, read-out: IC50) of 4.2 nM and an IC50 ([1]; Homo sapiens, HT-29, 168 h, TAK-960 40 nM, read-out: IC50) of 4.1 nM. The “synergistic effect on HCT116 cell viability, combined use with the PLK1 inhibitor” value ([3]; CYC140 or TAK-960, in words) was “no significant synergistic effect”, the IC50 ([3]; HCT116 cells, CYC140 (Plogosertib) 1.6 nM) was over 400 nM and the IC50 ([3]; HCT116 cells, CYC140 (Plogosertib) 8 nM) was over 400 nM. The IC50 ([3]; HCT116 cells, CYC140 (Plogosertib) 40 nM) was over 400 nM, the IC50 ([3]; HCT116 cells, TAK-960 0 nM) was over 400 nM and the IC50 ([3]; HCT116 cells, TAK-960 1.6 nM) was over 400 nM. The IC50 ([3]; HCT116 cells, TAK-960 8 nM) was over 400 nM, the IC50 ([3]; HCT116 cells, TAK-960 40 nM) was over 400 nM and the IC50 ([3]; Homo sapiens, HCT-116, HCT116 cells, CYC140 (Plogosertib) 0 nM) was over 400 nM. The “anti-proliferative activity against HCT116 cells, monotherapy” value ([3]; in words) was “did not exhibit anti-proliferative activity”.
With CN1CCN(c2ccc(OC(F)(F)F)c(Nc3ncc4c(n3)-c3c(c(C(N)=O)nn3CCO)CC4)c2)CC1 [Onvasertib, Onvansertib] the “Tumor volume on day 1 of administration” value ([4]; PO QD 14 days, AMG650/714 50 mpk, Onvasertib 20 mpk, day 1 (baseline)) was 134 mm^3, the “TGI on day 15” value [4, 7] was 80% and the “Tumor volume on day 15 of administration” value [4, 7] was 249 mm^3. For the same compound, the “therapeutic efficacy of monotherapy in HT29-bearing mice” value ([4]; monotherapy, in words) was “relatively weak therapeutic efficacy”.
Work on CC[C@@H]1C(=O)N(C)c2cnc(Nc3ccc(C(=O)N[C@H]4CC[C@H](N5CCN(CC6CC6)CC5)CC4)cc3OC)nc2N1C(C)C [Volasertib] yielded an IC50 [5, 8] of 22.8 nM, an IC50 [5, 9] of 37.8 nM and an IC50 ([5]; KIF18A inhibitor AMG650 3.2 nM) of 34.9 nM. It also gave an IC50 ([5]; KIF18A inhibitor AMG650 16 nM) of 19.5 nM, an IC50 ([5]; KIF18A inhibitor AMG650 80 nM) of 18.3 nM and an IC50 ([5]; KIF18A inhibitor AMG650 400 nM) of 15.5 nM. For the same compound, the IC50 [5, 10] was 17.2 nM, the IC50 [5, 11] was 15.6 nM and the IC50 [5, 12] was 10.2 nM. The IC50 [5, 13] was 1.2 nM, the IC50 [5, 14] was 1.4 nM and the IC50 [5, 15] was 0.7 nM. It also gave an IC50 [6, 8] of 82.1 nM, an IC50 [6, 9] of 70.5 nM and an IC50 ([6]; KIF18A inhibitor AMG650 3.2 nM) of 60.5 nM. The IC50 ([6]; KIF18A inhibitor AMG650 16 nM) was 38.2 nM, the IC50 ([6]; KIF18A inhibitor AMG650 80 nM) was 9.9 nM and the IC50 ([6]; KIF18A inhibitor AMG650 400 nM) was 8.1 nM. It also gave an IC50 [6, 10] of 77.9 nM, an IC50 [6, 11] of 61.6 nM and an IC50 [6, 12] of 35.8 nM. The IC50 [6, 13] was 10.1 nM, the IC50 [6, 14] was 5.7 nM and the IC50 [6, 15] was 5.3 nM.
